From patent US8481732B2 (Incyte Corporation, priority 2009, dated 2013)

biological target: T1, histamine H4 receptor (Homo sapiens, UniProt Q9H3N8); assay: H4 Membrane Binding Assay (3H-Histamine displacement); details: membranes of recombinant HEK293SFM cells, 10 nM 3H-Histamine, 1.5 hr at room temperature
T1 construct: expressed in transfected cells; host or cells: HEK293SFM cells (membrane preparation)
Method in brief: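 Membranes from HEK293SFM cells expressing human H4 (also human H1–H3, mouse H4), prepared in ice-cold 50 mM Tris-HCl pH 7.5. [3H]-histamine displacement, nonspecific binding defined with 1000× unlabeled ligand. Bound radioactivity separated on PEI-treated GF/B filters and measured by liquid scintillation counting.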

T1 sequence (Q9H3N8 whole entry): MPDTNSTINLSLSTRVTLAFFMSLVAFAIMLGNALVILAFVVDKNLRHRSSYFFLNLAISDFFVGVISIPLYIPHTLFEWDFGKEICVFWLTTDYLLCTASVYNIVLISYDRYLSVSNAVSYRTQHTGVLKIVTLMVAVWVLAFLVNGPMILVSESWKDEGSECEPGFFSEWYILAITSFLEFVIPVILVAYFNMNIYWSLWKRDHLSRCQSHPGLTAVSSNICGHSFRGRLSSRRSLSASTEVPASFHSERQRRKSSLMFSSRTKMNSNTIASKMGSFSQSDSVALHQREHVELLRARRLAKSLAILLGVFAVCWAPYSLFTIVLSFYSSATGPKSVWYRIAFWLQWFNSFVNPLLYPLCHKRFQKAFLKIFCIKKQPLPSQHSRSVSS

| SMILES | IC50 |
| --- | --- |
| CN1CCN(c2cc(-c3ccc4c(c3)CN(C(=O)Nc3cccc(Cl)c3)CC4)nc(N)n2)CC1 [Example 20, 7-[2-Amino-6-(4-methylpiperazin-1-yl)pyrimidin-4-yl]-N-(3-chlorophenyl)-3,4-dihydroisoquinoline-2(1H)-carboxamide] | 19.6 nM |
| COc1cccc(COc2cccc3c2CCN(C(=O)c2ccc4c(N5CCN(C)CC5)nc(N)nc4c2)C3)c1 [Example 208, (2-Amino-4-(4-methylpiperazin-1-yl)quinazolin-7-yl)(5-(3-methoxybenzyloxy)-3,4-dihydroisoquinolin-2(1H)-yl)methanone] | 24 nM |
| CN1CCN(c2cc(-c3ccc4c(c3)CN(C(=O)NC3(C(F)(F)F)CC3)CC4)nc(N)n2)CC1 [Example 117, 7-[2-amino-6-(4-methylpiperazin-1-yl)pyrimidin-4-yl]-N-[1-(trifluoromethyl)cyclopropyl]-3,4-dihydroisoquinoline-2(1H)-carboxamide] | 183 nM |
| CN1CCN(c2cc(-c3ccc4c(c3)CN(C(=O)Cc3ccc(F)cc3)CC4)nc(N)n2)CC1 [Example 65, 4-{2-[(4-Fluorophenyl)acetyl]-1,2,3,4-tetrahydroisoquinolin-7-yl}-6-(4-methylpiperazin-1-yl)pyrimidin-2-amine] | 25 nM |
| CC(C)c1ccc(CC(NC(=O)c2ccc3c(N4CCN(C)CC4)nc(N)nc3c2)C(=O)N(C)C)cc1 (stereo not shown) [Example 149, 2-Amino-N-[2-(dimethylamino)-1-(4-isopropylbenzyl)-2-oxoethyl]-4-(4-methylpiperazin-1-yl)quinazoline-7-carboxamide] | 40 nM |
| COC(=O)c1ccc(COc2ccc3c(c2)C(NC(=O)c2ccc4c(N5CCN(C)CC5)nc(N)nc4c2)CCC3)cc1 (stereo not shown) [Example 206, Methyl 4-((8-(2-amino-4-(4-methylpiperazin-1-yl)quinazoline-7-carboxamido)-5,6,7,8-tetrahydronaphthalen-2-yloxy)methyl)benzoate] | 24 nM |
| CN1CCN(c2cc(-c3ccc4c(c3)CN(C(=O)CC3CCOCC3)CC4)nc(N)n2)CC1 [Example 110, 4-(4-Methylpiperazin-1-yl)-6-[2-(tetrahydro-2H-pyran-4-ylacetyl)-1,2,3,4-tetrahydroisoquinolin-7-yl]pyrimidin-2-amine] | 86 nM |
| CN1CCN(c2nc(N)nc3cc(C(=O)NCc4cccc(OCc5cccc6nsnc56)c4)ccc23)CC1 [Example 195, 2-Amino-N-[3-(2,1,3-benzothiadiazol-4-ylmethoxy)benzyl]-4-(4-methylpiperazin-1-yl)quinazoline-7-carboxamide] | 3.4 nM |
| COC(=O)c1cccc(-c2ccc(C[C@H](NC(=O)c3ccc4c(N5CCN(C)CC5)nc(N)nc4c3)C(=O)N(C)C)cc2)c1 [Example 158, Methyl 4′-[(2S)-2-({[2-amino-4-(4-methylpiperazin-1-yl)quinazolin-7-yl]carbonyl}amino)-3-(dimethylamino)-3-oxopropyl]biphenyl-3-carboxylate] | 6.6 nM |
| CC(C)NC(=O)N1CCc2ccc(-c3cc(N4CCN(C)CC4)nc(N)n3)cc2C1 [Example 13, 7-[2-Amino-6-(4-methylpiperazin-1-yl)pyrimidin-4-yl]-N-isopropyl-3,4-dihydroisoquinoline-2(1H)-carboxamide] | 57.2 nM |
| CN1CCN(c2cc(-c3ccc4c(c3)CN(C(=O)NC(Cc3ccccc3)C(=O)N(C)C)CC4)nc(N)n2)CC1 (stereo in doubt) [Example 60, 7-[2-Amino-6-(4-methylpiperazin-1-yl)pyrimidin-4-yl]-N-[(1R)-1-benzyl-2-(dimethylamino)-2-oxoethyl]-3,4-dihydroisoquinoline-2(1H)-carboxamide] | 497 nM |
| COC(=O)c1ccc(COc2cccc3c2CCN(C(=O)c2ccc4c(N5CCN(C)CC5)nc(N)nc4c2)C3)cc1 [Example 211, Methyl 4-((2-(2-amino-4-(4-methylpiperazin-1-yl)quinazoline-7-carbonyl)-1,2,3,4-tetrahydroisoquinolin-5-yloxy)methyl)benzoate] | 63 nM |
| Cc1cc2c(cc1-c1cc(N3CCN(C)CC3)nc(N)n1)CN(C(=O)Nc1ccc(Cl)cc1)CC2 [Example 77, 7-[2-Amino-6-(4-methylpiperazin-1-yl)pyrimidin-4-yl]-N-(4-chlorophenyl)-6-methyl-3,4-dihydroisoquinoline-2(1H)-carboxamide] | 95 nM |
| CN1CCN(c2cc(-c3cc4c(cc3F)CCN(C(=O)Nc3ccc(Cl)cc3)C4)nc(N)n2)CC1 [Example 75, 7-[2-Amino-6-(4-methylpiperazin-1-yl)pyrimidin-4-yl]-N-(4-chlorophenyl)-6-fluoro-3,4-dihydroisoquinoline-2(1H)-carboxamide] | 44 nM |
| CN1CCN(c2nc(N)nc3cc(C(=O)N[C@@H](Cc4ccc(-c5cccc(C#N)c5)cc4)C(=O)N(C)C)ccc23)CC1 [Example 154, 2-Amino-N-[(1S)-1-[(3′-cyanobiphenyl-4-yl)methyl]-2-(dimethylamino)-2-oxoethyl]-4-(4-methylpiperazin-1-yl)quinazoline-7-carboxamide] | 14 nM |
| CN1CCN(c2nc(N)nc3cc(C(=O)NC(Cc4cccc(OCc5cccc(C#N)c5)c4)C(=O)N(C)C)ccc23)CC1 (stereo not shown) [Example 175, 2-Amino-N-[1-{3-[(3-cyanobenzyl)oxy]benzyl}-2-(dimethylamino)-2-oxoethyl]-4-(4-methylpiperazin-1-yl)quinazoline-7-carboxamide] | 18 nM |

| SMILES | IC50 |
| --- | --- |
| CN1CCN(c2cc(-c3ccc4c(c3)CN(C(=O)CC3CCN(C(=O)c5ccccc5)CC3)CC4)nc(N)n2)CC1 [Example 73, 4-{2-[(1-Benzoylpiperidin-4-yl)acetyl]-1,2,3,4-tetrahydroisoquinolin-7-yl}-6-(4-methylpiperazin-1-yl)pyrimidin-2-amine] | 357 nM |
| CCOC(=O)c1sc(Oc2cccc(CNC(=O)c3ccc4c(N5CCN(C)CC5)nc(N)nc4c3)c2)nc1C [Example 185, Ethyl 2-{3-[({[2-amino-4-(4-methylpiperazin-1-yl)quinazolin-7-yl]carbonyl}amino)methyl]phenoxy}-4-methyl-1,3-thiazole-5-carboxylate] | 8.4 nM |
| COC(=O)NC(CC(=O)N1CCc2ccc(-c3cc(N4CCN(C)CC4)nc(N)n3)cc2C1)C1CCCCC1 (stereo not shown) [Example 114, Methyl{3-[7-[2-amino-6-(4-methylpiperazin-1-yl)pyrimidin-4-yl]-3,4-dihydroisoquinolin-2(1H)-yl]-1-cyclohexyl-3-oxopropyl}carbamate] | 109 nM |
| CC(C)OC(=O)N1CCC(CC(=O)N2CCc3ccc(-c4cc(N5CCN(C)CC5)nc(N)n4)cc3C2)CC1 [Example 71, Isopropyl 4-{2-[7-[2-amino-6-(4-methylpiperazin-1-yl)pyrimidin-4-yl]-3,4-dihydroisoquinolin-2(1H)-yl]-2-oxoethyl}piperidine-1-carboxylate] | 66 nM |
| CN1CCN(c2cc(-c3ccc4c(c3)CN(C(=O)NC3(C)CCCCC3)CC4)nc(N)n2)CC1 [Example 47, 7-[2-Amino-6-(4-methylpiperazin-1-yl)pyrimidin-4-yl]-N-(1-methylcyclohexyl)-3,4-dihydroisoquinoline-2(1H)-carboxamide] | 27 nM |
| COC(=O)c1ccccc1Oc1cccc(CNC(=O)c2ccc3c(N4CCN(C)CC4)nc(N)nc3c2)c1 [Example 191, Methyl 2-{3-[({[2-amino-4-(4-methylpiperazin-1-yl)quinazolin-7-yl]carbonyl}amino)methyl]phenoxy}benzoate] | 20 nM |
| CN1CCN(c2nc(N)nc3cc(C(=O)NCc4cccc(Oc5nccc6ccccc56)c4)ccc23)CC1 [Example 181, 2-Amino-N-[3-(isoquinolin-1-yloxy)benzyl]-4-(4-methylpiperazin-1-yl)quinazoline-7-carboxamide] | 16 nM |
| CN1CCN(c2cc(-c3ccc4c(c3)CN(C(=O)OC3CCOC3)CC4)nc(N)n2)CC1 (stereo not shown) [Example 79, Tetrahydrofuran-3-yl 7-[2-amino-6-(4-methylpiperazin-1-yl)pyrimidin-4-yl]-3,4-dihydroisoquinoline-2(1H)-carboxylate] | 364 nM |
| CN1CCN(c2nc(N)nc3cc(C(=O)NCc4ccc(-c5ccccc5)cc4)ccc23)CC1 [Example 33] | 190 nM |
| Cc1ccc(C#N)c(Oc2cccc(C(C)NC(=O)c3ccc4c(N5CCN(C)CC5)nc(N)nc4c3)c2)n1 (stereo not shown) [Example 198, 2-Amino-N-(1-{3-[(3-cyano-6-methylpyridin-2-yl)oxy]phenyl}ethyl)-4-(4-methylpiperazin-1-yl)quinazoline-7-carboxamide] | 34 nM |
| CC(C)OC(=O)N1CCC(CC(=O)N2CCc3ccc(-c4cc(N5CCN(C)CC5)nc(N)n4)cc3C2)C1 (stereo not shown) [Example 119, Isopropyl 3-{2-[7-[2-amino-6-(4-methylpiperazin-1-yl)pyrimidin-4-yl]-3,4-dihydroisoquinolin-2(1H)-yl]-2-oxoethyl}pyrrolidine-1-carboxylate] | 70 nM |
| CN1CCN(c2nc(N)nc3cc(C(=O)N[C@@H](Cc4ccc(-c5cncc(C#N)c5)cc4)C(=O)N(C)C)ccc23)CC1 [Example 156, 2-Amino-N-[(1S)-1-[4-(5-cyanopyridin-3-yl)benzyl]-2-(dimethylamino)-2-oxoethyl]-4-(4-methylpiperazin-1-yl)quinazoline-7-carboxamide] | 41 nM |
| CN1CCN(c2cc(-c3ccc4c(c3)CN(C(=O)Cn3cccn3)CC4)nc(N)n2)CC1 [Example 112, 4-(4-Methylpiperazin-1-yl)-6-[2-(1H-pyrazol-1-ylacetyl)-1,2,3,4-tetrahydroisoquinolin-7-yl]pyrimidin-2-amine] | 337 nM |
| CN1CCN(c2cc(-c3cc4c(cc3F)CCN(C(=O)NC3CCCCC3)C4)nc(N)n2)CC1 [Example 76, 7-[2-Amino-6-(4-methylpiperazin-1-yl)pyrimidin-4-yl]-N-cyclohexyl-6-fluoro-3,4-dihydroisoquinoline-2(1H)-carboxamide] | 77 nM |
| CC(NC(=O)c1ccc2c(N3CCN(C)CC3)nc(N)nc2c1)c1cccc(Oc2ncccc2C#N)c1 (stereo not shown) [Example 199, 2-Amino-N-(1-{3-[(3-cyanopyridin-2-yl)oxy]phenyl}ethyl)-4-(4-methylpiperazin-1-yl)quinazoline-7-carboxamide] | 63 nM |
